In ChEMBL document CHEMBL5303304, “EUbOPEN Chemogenomics Library - IncuCyte” (2023):
Where “and” joins values, the source holds several entries; their conditions need not be identical. Equal values may be shown once.

Legend:
Format in all cases: toxicity, cell-based
[1] = tested on: Fibroblast; test: Incucyte cell viability with human fibroblast; details: 10 µM, compound concentration 10 uM
[2] = tested on: HEK-293T; test: Incucyte cell viability with HEK293T; details: human, 10 µM, compound concentration 10 uM
[3] = tested on: U2OS; test: Incucyte cell viability with U2OS; details: human, 10 µM, compound concentration 10 uM
Also: unitless GR value; below 1 slowed growth and below 0 cell loss.

Compound	Growth Rate ([1]; 6 h, replicate number 1)	Growth Rate ([1]; 6 h, replicate number 2)	Growth Rate ([1]; 12 h, replicate number 2)	Growth Rate ([1]; 18 h, replicate number 1)	Growth Rate ([1]; 18 h, replicate number 2)	Growth Rate ([1]; 24 h, replicate number 2)	Growth Rate ([2]; 6 h, replicate number 2)	Growth Rate ([2]; 12 h, replicate number 2)	Growth Rate ([3]; 6 h, replicate number 1)	Growth Rate ([3]; 6 h, replicate number 2)	Growth Rate ([3]; 12 h, replicate number 1)	Growth Rate ([3]; 12 h, replicate number 2)	Growth Rate ([3]; 18 h, replicate number 1)	Growth Rate ([3]; 18 h, replicate number 2)	Growth Rate ([3]; 24 h, replicate number 1)	Growth Rate ([3]; 0 h, replicate number 1)	Growth Rate ([3]; 0 h, replicate number 2)	Growth Rate ([1]; 0 h, replicate number 2)	Growth Rate ([1]; 0 h, replicate number 1)	Growth Rate ([1]; 12 h, replicate number 1)	other results
COc1ccccc1C(=O)Nc1cccc(NC(=O)c2cccc(C)c2)c1	0.45	-1	0.94	0.17	0.98	0.85	0.58	0.91	0.17	0.68	0.78	0.75	0.83	0.84	0.88	–	–	–	–	–	–
CCOC(=O)N1CCC(c2cc(O)n3nc(C)c(-c4ccc(F)cc4)c3n2)CC1	–	-0.67	0.8	0.13	0.85	0.92	0.98	–	0.54	0.99	0.93	–	0.98	–	–	0.61	0.63	–	–	–	Growth Rate ([2]; 12 h, replicate number 1): 0.62; Growth Rate ([2]; 18 h, replicate number 1): 0.78; Growth Rate ([2]; 24 h, replicate number 1): 0.88
Cc1ccc(CNc2ncnc3ccc(-c4ccc(CO)o4)cc23)o1	-1	–	–	–	–	–	0.11	0.71	–	–	–	–	–	0.94	–	-0.83	–	0.71	–	–	Growth Rate ([2]; 18 h, replicate number 2): 0.69; Growth Rate ([2]; 24 h, replicate number 2): 0.79; Growth Rate ([3]; 24 h, replicate number 2): 0.86
Cc1cc(C)c(NC(=O)C2CC3CCC2C3)c(C)c1 (stereo unspecified)	-0.94	-0.52	0.78	–	0.75	0.97	0.65	–	0.68	–	0.47	0.78	0.75	–	0.83	–	–	–	–	–	–
CN(C)CCOc1ccc(/C(=C(/CCCO)c2ccccc2)c2ccc(O)cc2)cc1	–	–	–	–	–	–	0.71	–	0.76	–	–	–	1	–	–	–	-0.67	-0.4	0.55	–	Growth Rate ([1]; 24 h, replicate number 1): 0.02
COc1ccc(-c2csc(NC(=O)[C@H]3CCCCN3S(=O)(=O)c3ccc(C)cc3)n2)cc1	0.02	–	–	–	0.57	0.7	0.07 and 0.12	0.37	0.92	0.97	0.99	–	–	–	0.87 and 0.98	0.22	-0.9	–	-1 and -0.88	0.31	Growth Rate ([1]; 24 h, replicate number 1): 0.84; Growth Rate ([2]; 18 h, replicate number 1): 0.35 and 0.26; Growth Rate ([2]; 18 h, replicate number 2): 0.3 and 0.38; Growth Rate ([2]; 24 h, replicate number 1): 0.37 and 0.33; Growth Rate ([2]; 24 h, replicate number 2): 0.41 and 0.4
COc1ccc(CC(=O)NC(N/C(=N/C#N)Nc2cccc3ncccc23)C(C)(C)C)cc1OC (stereo unspecified)	-0.31	-1	0.57	0.6	0.81	0.59	0.89	–	0.08	0.31	0.96	0.85	0.98	0.78	–	0.85	–	–	–	-1	Growth Rate ([2]; 18 h, replicate number 2): 0.99; Growth Rate ([3]; 24 h, replicate number 2): 0.82
CC(C)n1nc(-c2cnc(N)c(OC(F)(F)F)c2)cc1[C@H]1[C@@H]2CN(C3COC3)C[C@@H]21	–	–	0.78	0.08	0.91	0.95	0.62	–	0.76	–	0.92	–	–	–	0.84	0.6	–	–	0.52	-0.97	–
O=C(Nc1cc(C(F)(F)F)ccc1N1CCCCC1)c1ccncc1	–	0.12	0.6	–	0.93	0.9	0.49	–	–	0.58	–	–	–	–	–	0.2	–	-0.43	–	–	–
C[C@@H](c1ccc(F)cc1)n1nnc2cnc3ccc(-c4ccc5ocnc5c4)cc3c21	-0.77	0.8	–	0.35	–	–	0.07	0.99	–	–	–	–	0.87	–	0.82	-0.74	0.17	-0.11	0.85	-0.93	Growth Rate ([1]; 24 h, replicate number 1): 1
CP(C)(=O)c1ccc(CNC(=O)C2CCN(S(=O)(=O)c3cc(Cl)cc(Cl)c3)CC2)cc1	–	–	–	–	–	–	–	–	0.37	–	0.74	0.85	0.74	0.9	0.87	0.11	–	-0.94	–	–	Growth Rate ([2]; 12 h, replicate number 1): 0.93; Growth Rate ([2]; 18 h, replicate number 1): 0.9; Growth Rate ([2]; 24 h, replicate number 1): 0.89; Growth Rate ([3]; 24 h, replicate number 2): 0.89
